Laboratory results from patent publication US9416124B2, “Substituted 2-alkyl-1-OXO-N-phenyl-3-heteroaryl-1,2,3,4-tetrahydroisoquinoline-4-carboxamides for antimalarial therapies” (ST. JUDE CHILDREN'S RESEARCH HOSPITAL, priority 2011, dated 2016).

The molecules below were run on P. falciparum 3D7 (assay: P. falciparum drug susceptibility assay (3D7)). Details: 3D7 strain; racemate unless indicated; read-out: 3D7_EC50.
Format: cell-based, Plasmodium falciparum
Experimental: Parasites were grown as previously described in Mallari, J. P., Guiguemde, W. A., and Guy, R. K., Antimalarial activity of thiosemicarbazones and purine derived nitriles, Bioorg Med Chem Lett 19 (13), 3546 (2009). […] DMSO inhibitor stock solutions were pin-transferred (V&P Scientific) into the assay plate and background fluorescence was measured in both relevant channels (485 nm /535 nm, 612 nm /665 nm) in an Envision plate reader (PerkinElmer). Then 20 μl of a synchronized culture suspension (1% rings, 10% hematocrit) were added per well, thus making a final hematocrit and parasitemia of 5% and 1% respectively. Assay plates were incubated for 72 h and parasitemia was determined based on a modified protocol. (Smilkstein, M. et al., Simple and inexpensive fluorescence-based technique for high-throughput antimalarial drug screening. Antimicrob Agents Chemother 48 (5), 1803 (2004)). Briefly, 5 μl of mixed DNA dye solution in RPMI (5X SYBR Green I, 1 μM YOYO-3, 1% v/v Triton X-100, 1 mg/ml saponin) were added per well, assay plates were shaken for 30 s at 2000 rpm, incubated in the dark for 4 h, then read as previously described.

| EC50 [nM] | SMILES |
| --- | --- |
| 17 | N#Cc1cc(NC(=O)C2c3ccccc3C(=O)N(CC(F)(F)F)C2c2cccnc2)ccc1F (single isomer, unassigned; isomer d) [Example 6 d-isomer, d-N-(3-cyano-4-fluoro) -1-Oxo-3-pyridin-3-yl-2-(2,2,2-trifluoro-ethyl)-1,2,3,4-tetrahydro-isoquinoline-4-carboxamide] |

Same assay, conditions: Plasmodium falciparum; 3D7 strain; racemate unless indicated; read-out: 3D7_EC50

| EC50 [nM] | SMILES |
| --- | --- |
| 8 | CC(C)CN1C(=O)c2ccccc2[C@H](C(=O)Nc2cccc(OC(F)(F)F)c2)[C@H]1c1cnn(C)c1 (racemic) [Example 27, 2-isobutyl-3-(1-methyl-1H-pyrazol-4-yl)-1-oxo-N-(3-(trifluoromethoxy)phenyl)-1,2,3,4-tetrahydroisoquinoline-4-carboxamide] |
| 38 | N#Cc1cc(F)cc(NC(=O)[C@H]2c3ccccc3C(=O)N(CC(F)(F)F)[C@@H]2c2cccnc2)c1 (racemic) [Example 24, N-(3-cyano-5-fluorophenyl)-1-oxo-3-(pyridin-3-yl)-2-(2,2,2-trifluoroethyl)-1,2,3,4-tetrahydroisoquinoline-4-carboxamide] |
| 20 | CC(C)CN1C(=O)c2ccccc2[C@H](C(=O)Nc2cc(F)cc(C#N)c2)[C@H]1c1cccnc1 (racemic) [Example 23, N-(3-cyano-5-fluorophenyl)-2-isobutyl-1-oxo-3-(pyridin-3-yl)-1,2,3,4-tetrahydroisoquinoline-4-carboxamide] |
| 25 | O=C(Nc1cccc(OC(F)(F)F)c1)[C@H]1c2ccccc2C(=O)N(CC(F)(F)F)[C@@H]1c1cccnc1 (racemic) [Example 30, 1-oxo-3-(pyridin-3-yl)-2-(2,2,2-trifluoroethyl)-N-(3-(trifluoromethoxy)phenyl)-1,2,3,4-tetrahydroisoquinoline-4-carboxamide] |
| 144 | O=C(Nc1cc(F)cc(OC(F)(F)F)c1)[C@H]1c2ccccc2C(=O)N(CC(F)(F)F)[C@@H]1c1cccnc1 (racemic) [Example 42, N-(3-fluoro-5-(trifluoromethoxy)phenyl)-1-oxo-3-(pyridin-3-yl)-2-(2,2,2-trifluoroethyl)-1,2,3,4-tetrahydroisoquinoline-4-carboxamide] |
| 11 | N#Cc1ccc([C@@H]2[C@@H](C(=O)Nc3ccc(F)c(C#N)c3)c3ccccc3C(=O)N2CC2CC2)s1 (racemic) [Example 54, N-(3-cyano-4-fluorophenyl)-3-(5-cyanothiophen-2-yl)-2-(cyclopropylmethyl)-1-oxo-1,2,3,4-tetrahydroisoquinoline-4-carboxamide] |
| 7 | CC(C)CN1C(=O)c2ccc(F)cc2[C@H](C(=O)Nc2cccc(C#N)c2)[C@H]1c1cnn(C)c1 (racemic) [Example 47, N-(3-cyanophenyl)-6-fluoro-2-isobutyl-3-(1-methyl-1H-pyrazol-4-yl)-1-oxo-1,2,3,4-tetrahydroisoquinoline-4-carboxamide] |

The remaining lines, values behind:

| SMILES | EC50 [nM] |
| --- | --- |
| Cn1cc([C@@H]2[C@@H](C(=O)Nc3cccc(C#N)c3)c3ccccc3C(=O)N2CC(F)(F)F)cn1 (racemic) [Example 16, N-(3-cyanophenyl)-3-(1-methyl-1H-pyrazol-4-yl)-1-oxo-2-(2,2,2-trifluoroethyl)-1,2,3,4-tetrahydroisoquinoline-4-carboxamide] | 22 |
| CC(C)CN1C(=O)c2ccccc2[C@H](C(=O)Nc2cc(Cl)cc(C#N)c2)[C@H]1c1cnn(C)c1 (racemic) [Example 9, N-(3-chloro-5-cyanophenyl)-2-isobutyl-3-(1-methyl-1H-pyrazol-4-yl)-1-oxo-1,2,3,4-tetrahydroisoquinoline-4-carboxamide] | 8 |
| CC(C)CN1C(=O)c2ccccc2[C@H](C(=O)Nc2cc(Cl)cc(C#N)c2)[C@H]1c1cn[nH]c1 (racemic) [Example 7, N-(3-chloro-5-cyanophenyl)-2-isobutyl-1-oxo-3-(1H-pyrazol-4-yl)-1,2,3,4-tetrahydroisoquinoline-4-carboxamide] | 3 |
| N#Cc1cccc(NC(=O)[C@H]2c3ccccc3C(=O)N(CC(F)(F)F)[C@@H]2c2cn[nH]c2)c1 (racemic) [Example 14, N-(3-cyanophenyl)-1-oxo-3-(1H-pyrazol-4-yl)-2-(2,2,2-trifluoroethyl)-1,2,3,4-tetrahydroisoquinoline-4-carboxamide] | 30 |
| N#Cc1cccc(NC(=O)[C@H]2c3ccccc3C(=O)N(CC(F)(F)F)[C@@H]2c2cccnc2)c1 (racemic) [Example 18, N-(3-cyanophenyl)-1-oxo-3-(pyridin-3-yl)-2-(2,2,2-trifluoroethyl)-1,2,3,4-tetrahydroisoquinoline-4-carboxamide] | 24 |
| Cn1cc([C@@H]2[C@@H](C(=O)Nc3cc(F)cc(C#N)c3)c3ccccc3C(=O)N2CC(F)(F)F)cn1 (racemic) [Example 22, N-(3-cyano-5-fluorophenyl)-3-(1-methyl-1H-pyrazol-4-yl)-1-oxo-2-(2,2,2-trifluoroethyl)-l,2,3,4-tetrahydroisoquinoline-4-carboxamide] | 9 |
| CC(C)CN1C(=O)c2ccccc2[C@H](C(=O)Nc2cccc(C#N)c2)[C@H]1c1cn[nH]c1 (racemic) [Example 13, N-(3-cyanophenyl)-2-isobutyl-1-oxo-3-(1H-pyrazol-4-yl)-1,2,3,4-tetrahydroisoquinoline-4-carboxamide] | 7 |
| CC(C)CN1C(=O)c2ccccc2[C@H](C(=O)Nc2cc(F)cc(C#N)c2)[C@H]1c1cn[nH]c1 (racemic) [Example 19, N-(3-cyano-5-fluorophenyl)-2-isobutyl-1-oxo-3-(1H-pyrazol-4-yl)-1,2,3,4-tetrahydroisoquinoline-4-carboxamide] | 4 |
| N#Cc1cc(Cl)cc(NC(=O)[C@H]2c3ccccc3C(=O)N(CC(F)(F)F)[C@@H]2c2cn[nH]c2)c1 (racemic) [Example 8, N-(3-chloro-5-cyanophenyl)-1-oxo-3-(1H-pyrazol-4-yl)-2-(2,2,2-trifluoroethyl)-1,2,3,4-tetrahydroisoquinoline-4-carboxamide] | 26 |
| N#Cc1cc(NC(=O)[C@H]2c3ccccc3C(=O)N(CC(F)(F)F)[C@@H]2c2cn[nH]c2)ccc1F (racemic) [Example 2, N-(3-cyano-4-fluorophenyl)-1-oxo-3-(1H-pyrazol-4-yl)-2-(2,2,2-trifluoroethyl)-1,2,3,4-tetrahydroisoquinoline-4-carboxamide] | 41 |

Same assay, conditions: separated enantiomers, assayed as described in 4a; listed as 6 d; read-out: Potency (nM, 3D7 strain)

| EC50 [nM] | SMILES |
| --- | --- |
| 15 | N#Cc1cc(NC(=O)C2c3ccccc3C(=O)N(CC(F)(F)F)C2c2cccnc2)ccc1F (single isomer, unassigned; isomer d) [Example 6 d-isomer, d-N-(3-cyano-4-fluoro) -1-Oxo-3-pyridin-3-yl-2-(2,2,2-trifluoro-ethyl)-1,2,3,4-tetrahydro-isoquinoline-4-carboxamide] |
